Measurements published in patent publication US20030110574A1, “Use of optical brighteners from the class of the stilbene compounds as antimicrobially active substances” (priority 2000, published 2003).

System: bacterial mixture of Staphylococcus aureus ATCC 9144 and Escherichia coli NCTC 8196
Assay: Antimicrobial activity in agar plates after irradiation with xenon light, viable bacteria counted
Assay type: cell-based
Experimental: Determination of Antimicrobial Activity of Tinopal CBS-X after Irradiation with Light
The optical brightener of the formula [drawing 28]
is incorporated in agar plates and subsequently inoculated with bacteria and irradiated with xenon light for 10 minutes or 30 minutes.
The test is used to detect antimicrobial activity by comparison with unirradiated samples.
To this end, a 1.5% stock solution in DMSO is prepared.
0.5 and 0.1 ml of this solution are added to 15 ml of liquid agar (final concentration: 500 and 100 ppm).
After solidification and drying, a bacterial mixture of Staphylococcus aureus and Escherichia coli is plated out on the agar (final concentration cfu/ml:˜10^5). The plates are fixed on cotton by means of double sided Scotch tape and are irradiated with a xenon lamp for 10 or 30 minutes.
Unirradiated agar plattes including 100 and 500 ppm of Tinopal CBS-X and agar plates without Tinopal are incubated as controls.
All plates were incubated at 37° C. for about 48 hours. After incubation, viable bacteria are counted (see Table 1).
Staphylococcus aureus ATCC 9144
Escherichia coli NCTC 8196
Cultures 18 to 24 hours in casein soymeal peptone broth diluted 1:5000 (Staph.) and 1:10,000 (E. coli) and mixed together
The table reports the number of colony-forming units of bacteria after 10 minutes' and 30 minutes' irradiation.

SMILES: O=S(=O)([O-])c1ccccc1C=Cc1ccc(-c2ccc(C=Cc3ccccc3S(=O)(=O)[O-])cc2)cc1.[Na+].[Na+] [Tinopal CBS-X]
- number of colony-forming units of bacteria (100 ppm in agar, control not irradiated with xenon light (t: 0′)): 4.4 × 10^4 (t: 0′) colony-forming units
- number of colony-forming units of bacteria (100 ppm in agar, irradiated with xenon light, 10 minutes, incubated 37° C. about 48 hours): 2.3 × 10^4 colony-forming units
- number of colony-forming units of bacteria (100 ppm in agar, irradiated with xenon light, 30 minutes, incubated 37° C. about 48 hours): 5.1 × 10^2 colony-forming units
- reduction of the microorganisms compared with unirradiated plates and plates without Tinopal CBS-X (100 ppm or 500 ppm in agar nutrient medium, 30 minutes' irradiation with a xenon lamp): effective to substantially reduce the microorganisms
- number of colony-forming units of bacteria (500 ppm in agar, control not irradiated with xenon light (t: 0′)): 4.3 × 10^4 (t: 0′) colony-forming units
- number of colony-forming units of bacteria (500 ppm in agar, irradiated with xenon light, 10 minutes, incubated 37° C. about 48 hours): 3.0 × 10^4 colony-forming units
- number of colony-forming units of bacteria (500 ppm in agar, irradiated with xenon light, 30 minutes, incubated 37° C. about 48 hours): 1.5 × 10^2 colony-forming units
